From PubChem BioAssay (NCI)
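Briefly, cells in 96-well plates were exposed to five compound concentrations for 48 h, and endpoints were estimated by linear interpolation. GI50 is the concentration that inhibits growth by half. The concentration for full growth arrest is given as TGI.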

Experiments:
Test in all cases: NCI-60 cell line screen, 48 h
[1] = tested on: EKVX NSCLC
[2] = tested on: SF-295 CNS
[3] = tested on: IGROV1 ovarian
[4] = tested on: U251 CNS
[5] = tested on: OVCAR-3 ovarian
[6] = tested on: HOP-62 NSCLC
[7] = tested on: UO-31 renal
[8] = tested on: HCT-116 colon
[9] = tested on: SNB-19 CNS
[10] = tested on: PC-3 prostate

SMILES | TGI [1] [µM] | TGI [2] [µM] | TGI [3] [µM] | TGI [4] [µM] | TGI [5] [µM] | TGI [6] [µM] | TGI [7] [µM] | TGI [8] [µM] | TGI [9] [µM] | GI50 [8] [nM] | GI50 [10] [nM] | TGI [10] [µM] | GI50 [2] [nM] | GI50 [9] [nM] | GI50 [3] [nM] | GI50 [4] [nM] | GI50 [5] [µM] | GI50 [6] [nM] | GI50 [7] [nM] | GI50 [1] [µM]
CCOC(=O)C1(Cc2ccccc2)CCCCCN1 (stereo not drawn) | > 100 | > 100 | > 100 | > 100 | > 100 | > 100 | > 100 |  |  |  |  |  |  |  |  |  |  |  |  | 
COc1ccc(C(N)=O)cc1N=NN(C)C | > 100 | > 100 | > 100 | > 100 | > 100 | > 100 | > 100 | > 100 | > 100 |  |  |  |  |  |  |  |  |  |  | 
COC1CC2C=C(C)/C=C/C=C/C(=O)NC(c3ccccc3)C/C=C/CCC(O)CC(=O)C2=C1O (stereo not drawn) |  | 0.788 | 1.84 | 0.994 | 0.894 | 1.53 | 1.14 | 1.22 | 1.42 | 272 | 289 | 1.16 | 246 | 279 | 444 | 153 | 0.271 | 275 | 281 | 
C=C=C(CC)C(C(=O)OC)N(CC)CC (stereo not drawn) | > 100 | > 100 | > 100 | > 100 | > 100 | > 100 | > 100 | > 100 | > 100 |  |  |  |  |  |  |  |  |  |  | 
COc1ccc2c(c1OC)C1=C(C2=O)c2cc3c(cc2CCN1)OCO3 | > 100 | > 100 | > 100 |  | 90.7 | > 100 | > 100 | > 100 |  |  |  |  |  |  |  |  |  |  |  | 
COc1cc2noc(-c3ccccc3)c2cc1OC |  | 38.6 | > 100 | > 100 |  | > 100 | > 100 | > 100 | > 100 |  |  |  |  |  |  |  |  |  |  | 
CN1NC2(CCCCC2)ON=C1c1ccccc1 | > 100 | > 100 | > 100 | > 100 | > 100 | > 100 |  | > 100 | > 100 |  |  |  |  |  |  |  |  |  |  | 
Cc1sc(C)c(Cc2c(C)sc(C)c2CCl)c1CCl | > 100 | > 100 | > 100 | > 100 | > 100 | > 100 | > 100 | > 100 | > 100 | > 100000 |  |  | > 100000 | > 100000 | > 100000 | > 100000 | > 100 | > 100000 | > 100000 | > 100
COCC(=O)CP(=O)(OC)OC | > 100 | > 100 | > 100 | > 100 | > 100 | > 100 | > 100 | > 100 | > 100 |  |  |  |  |  |  |  |  |  |  | 
Cc1cc(C)c(C[N+](C)(C)C)c(C)c1C |  | 7.25 | > 95.7 | 34.7 | 15.3 | 7.59 | 42.8 | 24.8 | > 64.5 | 320 | 351 | > 67.2 | 255 | 351 | 477 | 307 | 0.638 | 323 | 333 | 
O=C(O)/C(=C/c1c(O)ccc2ccccc12)c1csc(-c2nc(/C(=C\c3c(O)ccc4ccccc34)C(=O)O)cs2)n1 | > 100 | 28.5 | 24.1 | 30.3 | 31.3 | 22.2 | 6.87 | 23.3 | 43 |  |  |  |  |  |  |  |  |  |  | 
COc1c(C(=O)O)oc2c(OC)cccc12 | > 100 | > 100 | > 100 | > 100 | > 100 | > 100 | > 100 | > 100 | > 100 |  |  |  |  |  |  |  |  |  |  | 
CN1c2ccccc2N(C)C2C1N(C)c1ccccc1N2C (stereo not drawn) | > 100 | > 100 | > 100 | > 100 | 50.2 | > 100 | 82.2 | 42.4 | 80.2 |  |  |  |  |  |  |  |  |  |  | 
C1CSCCCSCCSCCCSC1 | > 100 | > 100 | > 100 | > 100 |  | > 100 | > 100 | > 100 | > 100 |  |  | > 100 |  |  |  |  |  |  |  | 
O=c1cc2ccccc2nn1Cc1ccccc1Cl | > 100 | > 100 | > 100 | > 100 | > 100 | > 100 | > 100 | > 100 | > 100 |  |  |  |  |  |  |  |  |  |  | 
Cc1nc2c(n1C(C)(C)C)C(=O)c1ccccc1C2=O | > 100 | > 100 | > 100 | > 100 | > 100 | > 100 | > 100 | > 100 | > 100 |  |  |  |  |  |  |  |  |  |  | 
CC1(C)OC(=O)C=C([O-])O1.CC1(C)OC(=O)C=C([O-])O1.O=S(=O)([O-])c1ccc([O-])c2ncccc12.O=S(=O)([O-])c1ccc([O-])c2ncccc12.[Ti+4] | > 100 | > 100 | > 100 |  | > 100 | 73.1 | > 100 | > 100 | > 100 | 41800 |  |  | > 100000 | > 100000 | > 100000 |  | 86.4 | 26300 | > 100000 | > 100
NNc1cccc(/C=C/c2ccccc2)cc1=O | 35.8 |  | 46.1 | > 100 | 62.6 | > 100 | 9.24 | > 100 | > 100 | 7300 | 7870 | > 100 |  | 14900 | 4260 | 6930 | 7.35 | 9300 | 1860 | 3.27
Cc1nc2sc(C(=O)Nc3cccc4ccccc34)c(N)c2cc1C(=O)c1ccccc1 | > 50 |  | > 50 | > 50 |  | > 50 | > 50 | > 50 | > 50 | 1680 | 1780 | > 50 |  | 2410 | 1800 | 1970 |  | 2530 | 2110 | 2.95
CC(C)(C)NCc1cc(C(C)(C)C)cc(-c2ccc(Cl)cc2)c1O | 32.4 | 36.6 | 24.6 | 24.1 | 29.5 | 20.1 | 15.1 | 26 | 30.5 |  |  |  |  |  |  |  |  |  |  | 
